Assay results taken from US6677376B1, “Non-peptidic cyclophilin binding compounds and their use” (Guilford Pharmaceuticals, Inc., priority 1999, dated 2004).

Assays:
CyP A = CyP A (Homo sapiens, UniProt P62937)
Protocol: A number of substrates for rotamase are known in the art or can be derived from those known. Typically, the substrate contacts a sample containing a protein with rotamase activity and the conversion of the substrate is detected after a period of time. The method for detecting conversion of the substrate will vary with the particular substrate chosen.
The absorbance at 390 nm versus time is monitored for 90 seconds using a spectrophotometer and the rate constants are determined from the absorbance versus time data files.
While CyP A is used in these examples, other CyP proteins can be substituted.

spinal motor neurons = assay: Neuroprotection assay: THA neurotoxicity in spinal cord slice cultures; assay type: cell-based, Sprague-Dawley rat; conditions: THA 200 μM + compound 10 μM, primary cultures of spinal motor neurons
Protocol: For each of FIGS. 1-7, the bar graphs represent the number of viable neurons after a specified treatment regimen employed in a neuroprotective activity assay. The cells of the experiments were treated with a control solution, a neurotoxic solution, and neurotoxic+experimental compound solution. The statistical significance, p, is calculated using the standard 2 tailed Student's t test.
Each experiment consisted of two 6-well plates with 5 slices from 4 different animals per well. Media changes were performed every 3 to 4 days. […] The control was an untreated sample with 0.1% DMSO as vehicle. The THA control was a THA treated sample with 0.1% DSMO as vehicle. Two wells were used per condition. One media change with new THA and compounds was performed. […]
Quantification of surviving neurons was performed on a Ziess Axiovert microscope. Neuronal survival was determined by observing an intact neuronal cell body with processes located ventrally of the central canal in each hemisphere. […] Each hemisphere was counted individually. The statistics were performed with StatView software on a minimum of three different experiments per condition and significance was determined as compared to THA control. The percent of protection was determined from the average number of living neurons by the following equation: (drug treatment condition−THA control)/(Untreated control−THA control).

[1] = tested on: dorsal root ganglion (DRG) cells; assay: Neurite outgrowth in dorsal root ganglion (DRG) explant cultures; assay type: cell-based, mouse; conditions: for neurotrophic or neuroprotectant activity: assay not specified; for neuronal cell growth/neurite extension (images): compared to control, 48 hrs
Protocol: FIG. 7: Primary DRG cultures were used to test for neurotrophic, neurite outgrowth promoting, and neuroregenerative activity. Each of the compounds was incubated with cells at a concentration of 1 μM for 48 hours, as detailed in the examples.
Spinal cord and dorsal root ganglion (DRG) cells from adult mice can be isolated by micro-dissection. The spinal cord with attached DRGs from an adult mouse ([…]) is removed. Spinal nerves are cut away using micro-dissection scissors and any excess material is trimmed until the DRG is free. Using sharp micro-dissecting scissors, a transverse cut is made in the peripheral nerve, leaving 1-2 mm attached, and the explant placed into Petri dish and covered with plating media. When finished collecting all DRGs, the spinal nerve is trimmed to about […] in length. Then embed the explant in 30 μL of reduced growth factor Matrigel on a circular coverslip, and place in a […] culture dish. Cover the sensory ganglion explant with 2 mls of media. Compounds, drugs or control solutions are added from 10× stocks, and incubated at 37° C., 5% CO2, 95% humidity for 48 hrs. Wash cultures twice with PBS, and fix with 10% formalin for 30 minutes. Wash the fixed cultures twice with PBS and store refrigerated in PBS.
Place cultures in Block Buffer (5% Horse Serum, 5% Goat Serum, 1% Triton X, PBS pH=7.4) overnight, while rotating, at a temperature of 4° C. Add primary antibody (Beta tubulin, Sigma Chemical Co.) diluted in Block Buffer and incubate overnight at 4° C. Wash 5 times with PBS and apply secondary antibody (Alexa 488 Goat Anti-Mouse) diluted in block buffer. Incubate overnight at 4° C. Wash 5 times with PBS and leave overnight at 4 degrees. Coverslip the cultures and measure total neurite length from the end of the attached spinal nerve. Lengths of all neurites are quantitated and compared to those present in vehicle-treated control DRGs.

CyP A, sequence (P62937 whole entry): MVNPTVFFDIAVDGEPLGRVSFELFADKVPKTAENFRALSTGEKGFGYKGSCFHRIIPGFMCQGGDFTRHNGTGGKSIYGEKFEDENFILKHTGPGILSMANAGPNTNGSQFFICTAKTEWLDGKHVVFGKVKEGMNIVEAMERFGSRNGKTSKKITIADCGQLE

Compound	neuroprotective activity (number of viable neurons) (spinal motor neurons)	neurotrophic or neuroprotectant activity [1]	neuronal cell growth/neurite extension (images) [1]	further results
N#Cc1cccc(NC(=O)NCc2cccc(CNC(=O)Nc3cccc(C#N)c3)c2)c1 [Compound 32]	–	–	–	% Inhibition at 10 μM (CyP A): None detected
cyclosporin A [reference compound]	maintains neuronal viability	–	–	–
O=C(NCc1cccc2ccccc12)c1cccc(NC(=O)c2cc(Cl)cc(Cl)c2)c1 [Compound 16, {3-[(3,5-dichlorophenyl)carbonylamino]phenyl}-N-(naphthylmethyl) formamide]	–	–	–	melting point: 205 to 208 °C
CSc1ccc(Cl)cc1C(=O)Nc1cccc(NC(=O)c2cc(Cl)ccc2SC)c1 [Compound 6]	–	possess neurotrophic or neuroprotectant activity	increase in neuronal cell growth/neurite extension	–
O=C(Nc1ccccc1)Nc1cc(NC(=O)Nc2ccccc2)cc(C(F)(F)F)c1 [Compound 7]	–	possess neurotrophic or neuroprotectant activity	increase in neuronal cell growth/neurite extension	–
O=C(Nc1ccc(I)cc1)Nc1cc(NC(=O)Nc2ccc(I)cc2)c(Br)cc1Br [Compound 3]	displays neuroprotective activity	–	increase in neuronal cell growth/neurite extension	–
